Laboratory results reported in patent publication US20180177724A1, “SITE-TARGETED NANO-LIPOSOMAL NITROGLYCERIN THERAPEUTICS” (The Regents of the University of California, priority 2015, published 2018).
Like-named read-outs stand apart in the source and are kept apart here.

Columns and labels:
[1] = tested on: U937 monocytic cell adhesion to L-NIO-treated ECs; assay: Monocyte adhesion assay, L-NIO-treated (NO-deficient) ECs; format: cell-based, human; conditions: for U937 cell-EC adhesion after 4 hr treatment: L-NIO
Procedure: Human microvascular endothelial cells (HMEC-1) were purchased from the Center for Disease Control (CDC) and cultured on gelatin-coated tissue culture dishes in growth medium composed of MCDB-131 (VWR International, USA) supplemented with 10% FBS (Fisherbrand, USA), 2 mM L-Glutamine (Invitrogen, USA), 1× antimycotic/antibiotic mixture (Life Technologies, USA), 10 ng/mL huEGF (Millipore, USA) and 1 μg/mL Hydrocortizone (Sigma Aldrich, USA). Human U937 monocyte cells were purchased from ATCC (Manassas, Va., USA) and cultured in suspension in growth medium composed of RPMI 1640 (Fisherbrand, USA) supplemented with 2 mM L-Glutamine (Invitrogen), 10 mM HEPES (Fisherbrand, USA), 10% FBS (Fisherbrand), antimycotic/antibiotic mixture (Life Technologies, USA), 1 mM sodium pyruvate (Life Technologies, USA) and 4.5 mg/mL glucose (Sigma Aldrich, USA).
After 30 min of monocyte-EC interaction at 37° C., monocyte suspension was removed and the EC monolayers gently rinsed twice with PBS (to remove unbound monocytes) prior to fixation in 1% paraformaldehyde (PFA; Electron Microscopy Sciences, USA). Fluorescent images (10 per condition) of labeled U937 cells were then acquired using a Nikon Eclipse Ti microscope (Nikon, Japan) fitted with a Nikon Digital Sight DS-Qi1Mc camera and the number of adherent monocytes was counted using ImageJ software (NIH).

[2] = in vivo; cited from earlier work
[3] = tested on: endothelial NO production; assay: Intracellular NO by DAF-FM diacetate fluorescence; format: cell-based, human; conditions: NTG 5 μM
Procedure: (§1) Two independent methods were used to measure the amount of NO produced by ECs. In the first method, ECs were treated overnight with L-NIO (5 mM)±NTG (5 μM) or NTG-NL (10 μg/mL), followed by incubation with a NO-sensitive fluorescent dye DAF-FM diacetate (2 μM; Life Technologies, USA) for 20 minutes at 37° C. Following dye loading, ECs were again treated with L-NIO and NTG during a recovery phase for an additional 1 h in regular growth medium. EC culture media was then rinsed once with Krebs-Henseleit Buffer (KHB) containing 125 mM NaCl, 4.74 mM KCl, 2.5 mM CaCl2, 1.2 mM KH2PO4 1.2 mM MgSO4, 5 mM NaHCO3 and 10 mM Glucose (Sigma Aldrich, USA), replaced with fresh KHB and immediately subjected to live cell fluorescence imaging using Nikon Eclipse Ti microscope. At least 30 cells per condition were analyzed for total cell fluorescence using ImageJ software (NIH). For the second method, a Nitric Oxide Analyzer (NOA; Sievers, USA) was used to measure EC-secreted NO in culture medium. For this measurement, confluent ECs were treated overnight with either L-NIO (5 mM)±NTG (5 μM) or NTG alone, followed by sequential 1 h incubations with KHB without and with L-NIO±NTG at 37° C. KHB conditioned medium (4 replicates per condition) was then collected and analyzed using NOA.

[4] = tested on: endothelial NO production; assay: EC-secreted (extracellular) NO by Nitric Oxide Analyzer (NOA); format: cell-based, human; conditions: NTG 5 μM, L-NIO-treated ECs
Procedure: as §1

[5] = tested on: endothelial mitochondrial superoxide; assay: Endothelial mitochondrial superoxide production (MitoSOX); format: cell-based, human; conditions: free NTG 100 μM (20-fold above effective dose), L-NIO-treated ECs
Procedure: ECs were plated at sub-confluence on gelatin-coated MatTek dishes under normal culture conditions and subjected to overnight treatment with either L-NIO (3 mM)±[NTG (5, 25, or 100 μM) or NTG-NL (5, 50 or 100 μg/mL)]. To detect mitochondrial superoxide, ECs were labeled with MitoSOX™ (Life Technologies, USA), a mitochondrial superoxide-sensitive fluorescent dye that is widely used to measure mitochondrial ROS production under various conditions, including NTG treatment. ECs were labeled with MitoSOX™ Red at a final dose of 5 μM in KHB for 10 minutes at 37° C., rinsed three times with KHB to remove excess dye and placed at 37° C. in KHB for an additional 10 minutes prior to live cell imaging. Fluorescence images (six per condition) were acquired using Nikon Eclipse Ti microscope and total cell fluorescence intensity from at least 20 cells was analyzed using ImageJ software.

[6] = tested on: endothelial ICAM-1 clustering; assay: ICAM-1 clustering in U937 cell-EC co-cultures; format: cell-based, human; conditions: NTG 5 μM
Procedure: ECs were grown to confluence on glass coverslips under normal growth conditions and treated with L-NIO (5 mM)±[NTG (5 μM) or NTG-NL (5 μg/mL)] for 24 h. Next, a monocyte adhesion assay was performed (as described earlier) and the monocyte-EC co-cultures fixed, permeabilized with 0.1% Triton X-100, blocked with 2% bovine serum albumin (BSA; Millipore, USA), and sequentially incubated with primary anti-ICAM-1 mouse antibody (Santa Cruz Biotechnology, USA) and secondary FITC-conjugated DyLight 488 anti-mouse IgG (Vector Labs, USA). To visualize actin microfilaments, monocyte-EC co-cultures were incubated with Alexa Fluor 594-Phalloidin (BD Biosciences, USA). Coverslips were mounted onto glass slides and fluorescence images (15 per condition) were taken using a Nikon Eclipse Ti microscope fitted with a Nikon Digital Sight DS-Qi1Mc camera. ICAM-1 clustering index was determined using ImageJ by normalizing the total monocyte fluorescence (from at least 30 cells) to the background of the surrounding EC cytoplasm.

[7] = tested on: isolated sheep pulmonary arteries; assay: Pulmonary artery ring isometric tension: NTG-induced vasorelaxation after pretreatment
Procedure: All animal procedures were in accordance with the Animal Welfare Act, the Guiding Principles in the Care and Use of Animals approved by the Council of the American Physiological Society, the National Institutes of Health Guide for the Care and Use of Laboratory Animals, and Loma Linda University Institutional Animal Care and Use Committee (IACUC). Pregnant ewes were anesthetized with ketamine (10 mg/kg, IV) and midazolam (5 mg/kg, IV) and anesthesia maintained with inhalation of 1-3% isofluranein O2 throughout surgery as required. Ewes and Fetuses were euthanized with an overdose of Euthasol (pentobarbital sodium, 100 mg/kg) and phenytoin sodium (10 mg/kg; Virbac, Ft. Worth, Tex.).
To assess arterial vasorelaxation in response to NTG treatment, pulmonary arteries (4th-5th order) were harvested from newborn fetal sheep (gestational period between 138-141 days), dissected free of parenchyma and cut into 5 mm long rings (at least 8 per condition) in ice-cold HEPES buffer (Sigma Aldrich, USA). […] Following treatment, rings were mounted onto tungsten wires under 0.5 g of resting tension in organ baths containing KHB, gassed with 95% O2-5% CO2, and maintained at 37° C. Arterial rings were rinsed once with KHB, allowed to equilibrate for at least 30 minutes, and re-tensioned prior to addition of 125 mM KCl (Sigma Aldrich, USA) to ensure rings were still functional. Rings were rinsed three times to remove KCl, allowed to relax, and preconstricted with 10 μM Serotonin (Tocris Bioscience, USA) to achieve 100% contraction. Rings were then exposed to increasing concentrations of free NTG (1 nM to 100 μM) and subsequent recordings of concentration-response curves were acquired using a force displacement transducer (AD Instruments, New Zealand) and analyzed using Prism (Graphpad Software Inc).

## O=[N+]([O-])OCC(CO[N+](=O)[O-])O[N+](=O)[O-] [NTG, Nitroglycerin]
[1]
  effect on U937 monocytic cell adhesion to ECs: dose-dependent inhibition
[1]; Homo sapiens, U-937, read-out: EC50, inhibition of human monocyte adhesion to NO-deficient human microvascular ECs
  EC50: 0.64 µM
[1]; L-NIO-treated ECs, adhesion back to level of untreated ECs
  effective anti-inflammatory NTG dose: 5 µM
[1]; NTG 5 μM
  U937 cell-EC adhesion after 4 hr treatment: significant inhibition of U937 cell-EC adhesion
[1]; free NTG 100 μM
  U937 cell-EC adhesion after 4 hr treatment: loses its therapeutic effect
[1]; free NTG 100 μM, L-NIO-treated ECs
  loss (decrease) in anti-inflammatory effect at high dose: ~2 fold
[1]; listed as Free NTG
  anti-inflammatory effect of free NTG at the amount equivalent to NTG-NL: does not produce a significant anti-inflammatory effect
[1]; listed as free NTG
  anti-inflammatory effect of free NTG at the amount equivalent to NTG-NL: failed to produce a significant anti-inflammatory effect
[2]
  time of clearance of NTG from bloodstream: 15 to 30 min
[3]
  recovery of intracellular NO in L-NIO-treated cells: 79%
[4]
  recovery of EC-dependent (extracellular) NO production: complete recovery
[5]
  increase in mitochondrial superoxide formation: 2 fold
[6]
  effect on ICAM-1 clustering induced by L-NIO: inhibited
[7]; Ovis aries, read-out: Mean IC50 of NTG-induced relaxation, arteries pretreated 4 h with free NTG 5 μM
  IC50: 0.25 µM
[7]; Ovis aries, read-out: Mean IC50 of NTG-induced relaxation, arteries pretreated 4 h with free NTG 100 μM
  IC50: 15 µM
[7]; Ovis aries, read-out: −Log IC50 of NTG-induced relaxation, arteries pretreated 4 h with free NTG 5 μM (converted), mean ± SEM
  IC50: 0.251 µM
[7]; Ovis aries, read-out: −Log IC50 of NTG-induced relaxation, arteries pretreated 4 h with free NTG 100 μM (converted), mean ± SEM
  IC50: 15.5 µM
[7]; arteries pretreated 4 h with free NTG 5 μM, mean ± SEM
  Maximal Relaxation (%): 69 ± 4 %
[7]; arteries pretreated 4 h with free NTG 100 μM, mean ± SEM
  Maximal Relaxation (%): 66 ± 9%
[7]; read-out: Mean IC50 of NTG-induced relaxation, arteries pretreated 4 h with free NTG 100 μM
  IC50: 15.5 µM
